From patent US7960556B2, “Thiadiazole derivatives for the treatment of neuro-degenerative diseases” (NV reMYND, priority 2006, dated 2011)

Tested on: α-synuclein cytotoxicity in M17-SYNwt cells
Assay: α-synuclein cytotoxicity assay: LDH leakage from paraquat-treated M17-SYNwt neuroblastoma cells;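 also: paraquat at 32 mM co-added with compound, 40 h exposure, LDH activity released into the culture medium measured, references are DMSO-only cells and paraquat plus DMSO cells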
Details: Homo sapiens, Neuroblastoma cell; for Emax: read-out: % Inhib.
From the text: An α-synuclein expression plasmid was constructed by sub-cloning the NcoI/XhoI fragment from 212T-SYN(WT) (Griffioen et al., Biochem Biophys Acta (2006) 1762(3):312-318) containing the cDNA of human wild type α-synuclein correspondingly into a standard mammalian expression vector pcDNA3.1 (Invitrogen) resulting into the plasmid pcDNA3.1-SYNwt. Plasmids pcDNA3.1 and pcDNA3.1-SYNwt were transfected to human neuroblastoma cells (ATCC No. CRL-2267) and independent clonal lines with the plasmids stably integrated into the genome were selected. […] Over-expression of α-synuclein in M17-SYNwt cell lines was confirmed by Western analysis.
Due to the high levels of α-synuclein M17-SYNwt cells are exquisitely sensitivity to paraquat, a well-known risk factor of synuclein-dependent neuronal degeneration. In degenerated or dead cells lactate dehydrogenase (LDH) is leaked out of the cells into the extracellular environment due to a loss of plasma-membrane integrity. This principle was used to determine cytotoxicity by quantifying the level of leaked LDH into the growth medium.
The detailed method for determining α-synuclein cytotoxicity was as follows: From appropriate precultures of M17 and M17-SYN cells were seeded at 50,000 cells/cm^2 in Optimem Reduced Serum without phenol red (available from InVitrogen, Cat. 31985-047) supplemented with 5% fetal calf serum, 1 mM sodium pyruvate, 1× non-essential amino acids, 500 μg/ml G418 0,5× antibiotic/antimycotic. After 3 hours of incubation at 37° C./5% CO2 paraquat was added to the cells (final concentration of 32 mM), together with the test compound and the cells were further incubated for 40 hours. Subsequently, LDH activity was determined using Promega Cytotox 96 Non-Radioactive cytotoxicity assay, (Cat. G1780) according the instructions of the supplier.
In these experiments, the control group consisted of M17-SYNwt cells treated with DMSO, the untreated paraquat group consisted of M17-SYNwt cells treated with paraquat and DMSO, and the treated paraquat group consisted of M17-SYNwt cells treated with paraquat and the test compound dissolved in DMSO.

Compound | Emax [%] | EC50 [µM]
CC1CN(c2nc(Cc3ccc(F)cc3)ns2)CCN1S(=O)(=O)c1ccccc1 (centres unmarked) [compound 47, 1-phenylsulfonyl-4-[3-(4-fluorobenzyl)-1,2,4-thiadiazol-5-yl]-2-methylpiperazine] | 129 | 
Cc1ccc(Cc2nsc(N3CCN(S(=O)(=O)c4cccc5ccccc45)CC3)n2)cc1 [compound 35, 1-[1-naphtylsulfonyl]-4-[3-(4-methylbenzyl)-1,2,4-thiadiazol-5-yl]piperazine] | 47 | 0.0472
Cc1ccccc1C(=O)N1CCN(c2nc(Cc3ccc(F)cc3)ns2)CC1 [compound 152, 1-(2-methylbenzoyl)-4-[3-(4-fluorobenzyl)-1,2,4-thiadiazol-5-yl]piperazine] | 66 | 1.15
COc1ccc(S(=O)(=O)N2CCN(c3nc(Cc4ccccc4)ns3)CC2)cc1 [compound 199, 1-[4-methoxyphenylsulfonyl]-4-[3-benzyl-1,2,4-thiadiazol-5-yl]piperazine] | 38 | 0.0038
CC(=O)Nc1ccc(S(=O)(=O)N2CCN(c3nc(Cc4ccc(C)cc4)ns3)CC2C)cc1 (centres unmarked) [compound 48, 1-[4-acetamidophenylsulfonyl]-4-[3-(4-methylbenzyl)-1,2,4-thiadiazol-5-yl]-2-methylpiperazine] | 91 | 0.00844
CCc1ccc(C(=O)NCCN2CCN(c3nc(Cc4ccc(F)cc4)ns3)CC2)cc1 [compound 103, 4-ethyl-N-{2-[4-[3-(4-fluorobenzyl)-1,2,4-thiadiazol-5-yl]piperazin-1-yl]ethyl}benzamide] | 139 | 2.32
O=C(NCCN1CCN(c2nc(Cc3ccc(F)cc3)ns2)CC1)c1ccccc1 [compound 104, N-{2-[4-[3-(4-fluorobenzyl)-1,2,4-thiadiazol-5-yl]piperazin-1-yl]ethyl}benzamide] | 65 | 3.82
Cc1ccccc1NC(=O)N1CCN(c2nc(Cc3ccc(F)cc3)ns2)CC1 [compound 15, N-(2-methylphenyl)-4-[3-(4-fluorobenzyl)-1,2,4-thiadiazol-5-yl]piperazine-1-carboxamide] | 65 | 5.01
CC1CN(c2nc(Cc3ccc(F)cc3)ns2)CCN1C(=O)c1cccc(F)c1 (centres unmarked) [compound 179, 1-(3-fluorobenzoyl)-4-[3-(4-fluorobenzyl)-1,2,4-thiadiazol-5-yl]-2-methylpiperazine] | 68 | 
CCCCCc1ccc(C(=O)NCCN2CCN(c3nc(Cc4ccc(F)cc4)ns3)CC2)cc1 [compound 94, 4-pentyl-N-{2-[4-[3-(4-fluorobenzyl)-1,2,4-thiadiazol-5-yl]piperazin-1-yl]ethyl}benzamide] | 90 | 0.35
Cc1ccc(Cc2nsc(N3CCN(S(=O)(=O)c4ccc(C(C)(C)C)cc4)CC3)n2)cc1 [compound 67, 1-[4-tert-butylphenylsulfonyl]-4-[3-(4-methylbenzyl)-1,2,4-thiadiazol-5-yl]piperazine] | 41 | 
O=C(c1ccc(F)cc1)N1CCN(c2nc(Cc3ccccc3)ns2)CC1 [compound 163, 1-(4-fluorobenzoyl)-4-[3-benzyl-1,2,4-thiadiazol-5-yl]piperazine] | 67 | 3.61
COc1ccc(S(=O)(=O)NCCCNc2nc(Cc3cccc(OC)c3)ns2)cc1 [compound 211, N-[4-methoxyphenylsulfonyl]-N′-[3-(3-methoxybenzyl)-1,2,4-thiadiazol-5-yl]-propane-1,3-diamine] | 100 | 0.367
Cc1ccc(Cc2nsc(N3CCN(C/C=C/c4ccccc4)CC3)n2)cc1 [compound 91, 1-[3-phenylprop-2-enyl]-4-[3-(4-methylbenzyl)-1,2,4-thiadiazol-5-yl]piperazine] | 90 | 0.71
COc1ccc(C(=O)N2CCN(c3nc(Cc4ccc(F)cc4)ns3)CC2C)cc1 (centres unmarked) [compound 118, 1-(4-methoxybenzoyl)-4-[3-(4-fluorobenzyl)-1,2,4-thiadiazol-5-yl]-2-methylpiperazine] | 64 | 0.0911
O=C(c1ccc(F)cc1)N1CCN(c2nc(Cc3ccc(Cl)cc3)ns2)CC1 [compound 153, 1-(4-fluorobenzoyl)-4-[3-(4-chlorobenzyl)-1,2,4-thiadiazol-5-yl]piperazine] | 53 | 1.44
Cc1ccc(Cc2nsc(N3CCN(S(=O)(=O)c4c(C)cc(C)cc4C)CC3)n2)cc1 [compound 37, 1-[2,4,6-trimethylphenylsulfonyl]-4-[3-(4-methylbenzyl)-1,2,4-thiadiazol-5-yl]piperazine] | 48 | 0.0731
CC1CN(c2nc(Cc3ccc(Cl)cc3)ns2)CCN1C(=O)/C=C/c1ccccc1 (centres unmarked) [compound 86, 1-[(2E)-3-phenylprop-2-enoyl]-4-[3-(4-chlorobenzyl)-1,2,4-thiadiazol-5-yl]2-methylpiperazine] | 81 | 1.13
CCOc1ccc(NC(=O)N2CCN(c3nc(Cc4ccc(F)cc4)ns3)CC2C)cc1 (centres unmarked) [compound 14, N-(4-ethoxyphenyl)-4-[3-(4-fluorobenzyl)-1,2,4-thiadiazol-5-yl]-2-methylpiperazine-1-carboxamide] | 70 | 1.73

Compound | Emax [%] | EC50 [µM]
CC1CN(c2nc(Cc3ccc(F)cc3)ns2)CCN1C(=O)Cc1ccccc1 (centres unmarked) [compound 5, 1-phenylacetyl-4-[3-(4-fluorobenzyl)-1,2,4-thiadiazol-5-yl]-2-methylpiperazine] | 83 | 
CC1CN(c2nc(Cc3ccc(F)cc3)ns2)CCN1C(=O)c1cccc(C(F)(F)F)c1 (centres unmarked) [compound 145, 1-(3-trifluoromethylbenzoyl)-4-[3-(4-fluorobenzyl)-1,2,4-thiadiazol-5-yl]-2-methylpiperazine] | 60 | 0.62
CC1CN(c2nc(Cc3ccc(F)cc3)ns2)CCN1S(=O)(=O)c1ccc(F)cc1 (centres unmarked) [compound 59, 1-[4-fluorophenylsulfonyl]-4-[3-(4-fluorobenzyl)-1,2,4-thiadiazol-5-yl]-2-methylpiperazine] | 42 | 
COc1ccc(S(=O)(=O)N(C)CCN(C)c2nc(Cc3cccc(OC)c3)ns2)cc1 [compound 215, N′-[4-methoxyphenylsulfonyl]-N-[3-(3-methoxybenzyl)-1,2,4-thiadiazol-5-yl]-N,N′-dimethylethane-1,2-diamine] | 105 | 0.301
O=S(=O)(c1cc(Cl)ccc1Cl)N1CCN(c2nc(Cc3ccc(Cl)cc3)ns2)CC1 [compound 39, 1-[2,5-dichlorophenylsulfonyl]-4-[3-(4-chlorobenzyl)-1,2,4-thiadiazol-5-yl]piperazine] | 25 | 0.16
COc1ccc(S(=O)(=O)N2CCN(c3nc(Cc4cccc(F)c4)ns3)CC2)cc1 [compound 193, 1-[4-methoxyphenylsulfonyl]-4-[3-(3-fluoro-benzyl)-1,2,4-thiadiazol-5-yl]piperazine] | 68 | 0.0107
COc1ccc(NC(=O)N2CCN(c3nc(Cc4ccc(F)cc4)ns3)CC2)c(OC)c1 [compound 27, N-(2,4-dimethoxyphenyl)-4-[3-(4-fluorobenzyl)-1,2,4-thiadiazol-5-yl]piperazine-1-carboxamide] | 67 | 
Clc1ccc(Cc2nsc(N3CCN(C/C=C/c4ccccc4)CC3)n2)cc1 [compound 92, 1-[3-phenylprop-2-enyl]-4-[3-(4-chlorobenzyl)-1,2,4-thiadiazol-5-yl]piperazine] | 69 | 0.75
CCc1ccc(NC(=O)N2CCN(c3nc(Cc4ccc(F)cc4)ns3)CC2C)cc1 (centres unmarked) [compound 11, N-(4-ethylphenyl)-4-[3-(4-fluorobenzyl)-1,2,4-thiadiazol-5-yl]-2-methylpiperazine-1-carboxamide] | 73 | 0.69
COc1ccc(S(=O)(=O)NCCN(C)c2nc(Cc3cccc(OC)c3)ns2)cc1 [compound 213, N′-[4-methoxyphenylsulfonyl]-N-[3-(3-methoxybenzyl)-1,2,4-thiadiazol-5-yl]-N-methylethane-1,2-diamine] | 94 | 0.361
O=S(=O)(c1ccc(F)cc1)N1CCN(c2nc(Cc3ccc(Cl)cc3)ns2)CC1 [compound 33, 1-[4-fluorophenylsulfonyl]-4-[3-(4-chlorobenzyl)-1,2,4-thiadiazol-5-yl]piperazine] | 53 | 0.00282
O=S(=O)(c1ccc(O)cc1)N1CCN(c2nc(Cc3ccc(F)cc3)ns2)CC1 [compound 217, 1-(4-hydroxybenzenesulfonyl)-4-[3-(4-fluoro-benzyl)-1,2,4-thiadiazol-5-yl]piperazine] | 77 | 0.077
Cc1ccc(NC(=O)N2CCN(c3nc(Cc4ccc(F)cc4)ns3)CC2C)c(C)c1 (centres unmarked) [compound 20, N-(2,4-dimethylphenyl)-4-[3-(4-fluorobenzyl)-1,2,4-thiadiazol-5-yl]-2-methylpiperazine-1-carboxamide] | 106 | 0.76
CCCCc1ccc(C(=O)N2CCN(c3nc(Cc4ccc(C)cc4)ns3)CC2C)cc1 (centres unmarked) [compound 117, 1-(4-butylbenzoyl)-4-[3-(4-methylbenzyl)-1,2,4-thiadiazol-5-yl]-2-methylpiperazine] | 82 | 0.0841
O=C(NCCN1CCN(c2nc(Cc3ccc(F)cc3)ns2)CC1)c1ccc(Cl)cc1 [compound 97, 4-chloro-N-{2-[4-[3-(4-fluorobenzyl)-1,2,4-thiadiazol-5-yl]piperazin-1-yl]ethyl}benzamide] | 68 | 1.29
Cc1ccc(Cc2nsc(N3CCN(S(=O)(=O)Cc4ccccc4)CC3)n2)cc1 [compound 77, 1-(benzylsulfonyl)-4-[3-(4-methylbenzyl)-1,2,4-thiadiazol-5-yl]piperazine] | 81 | 
O=S(=O)(Cc1ccccc1)N1CCN(c2nc(Cc3ccc(Cl)cc3)ns2)CC1 [compound 76, 1-(benzylsulfonyl)-4-[3-(4-chlorobenzyl)-1,2,4-thiadiazol-5-yl]piperazine] | 40 | 
O=C(/C=C/c1ccccc1)N1CCN(c2nc(Cc3ccc(Cl)cc3)ns2)CC1 [compound 88, [(2E)-3-phenylprop-2-enoyl]-4-[3-(4-chlorobenzyl)-1,2,4-thiadiazol-5-yl]piperazine] | 72 | 
